Measurements reported in ChEMBL document CHEMBL3044598, “Study of inhibitory effects and action mechanism of the novel fungicide pyrimorph against Phytophthora capsici” (J Agric Food Chem, 2010).
In brackets after ≈: the same amount, converted by molar mass. Activity calls are given as the source filed them. The rule behind the calls is not given here.

Key:
Phytophthora capsici [1] = test: Inhibition of intact mycelial respiration of Phytophthora capsici at 10 ug/mL in presence of malonic acid; format: functional
Phytophthora capsici [2] = test: Inhibition of intact mycelial respiration of Phytophthora capsici at 10 ug/mL in presence of sodium phosphate; format: functional
Phytophthora capsici [3] = test: Inhibition of intact mycelial respiration of Phytophthora capsici at 10 ug/mL in presence of iodoacetic acid; format: functional
Phytophthora capsici [4] = test: Inhibition of intact mycelial respiration of Phytophthora capsici assessed as superpose rate of oxygen consumption at 10 ug/mL in presence of sodium phosphate; format: functional; design: scale not given: the % may be the effect or the level left
Phytophthora capsici [5] = test: Inhibition of intact mycelial respiration of Phytophthora capsici assessed as superpose rate of oxygen consumption at 10 ug/mL in presence of iodoacetic acid; format: functional; design: scale not given: the % may be the effect or the level left
Phytophthora capsici [6] = test: Inhibition of intact mycelial respiration of Phytophthora capsici assessed as superpose rate of oxygen consumption at 10 ug/mL in presence of malonic acid; format: functional; design: scale not given: the % may be the effect or the level left
Phytophthora capsici [7] = test: Inhibition of intact mycelial respiration of Phytophthora capsici at 10 ug/mL; format: functional
Phytophthora capsici [8] = test: Inhibition of intact mycelial respiration of Phytophthora capsici at 100 ug/mL in presence of sodium phosphate; format: functional
Phytophthora capsici [9] = test: Inhibition of intact mycelial respiration of Phytophthora capsici at 100 ug/mL; format: functional
Phytophthora capsici [10] = test: Inhibition of intact mycelial respiration of Phytophthora capsici assessed as superpose rate of oxygen consumption at 100 ug/mL in presence of malonic acid; format: functional; design: scale not given: the % may be the effect or the level left
Phytophthora capsici [11] = test: Inhibition of intact mycelial respiration of Phytophthora capsici assessed as superpose rate of oxygen consumption at 100 ug/mL in presence of sodium phosphate; format: functional; design: scale not given: the % may be the effect or the level left
Phytophthora capsici [12] = test: Inhibition of intact mycelial respiration of Phytophthora capsici at 100 ug/mL in presence of iodoacetic acid; format: functional
Phytophthora capsici [13] = test: Inhibition of intact mycelial respiration of Phytophthora capsici at 100 ug/mL in presence of malonic acid; format: functional
Phytophthora capsici [14] = test: Inhibition of intact mycelial respiration of Phytophthora capsici assessed as superpose rate of oxygen consumption at 100 ug/mL in presence of iodoacetic acid; format: functional; design: scale not given: the % may be the effect or the level left
Phytophthora capsici [15] = test: Inhibition of mycelial radial growth of Phytophthora capsici at 10 ug/mL incubated at 25 degC for 5 days in presence of 5 ug/mL ATP; format: functional
Phytophthora capsici [16] = test: Inhibition of mycelial radial growth of Phytophthora capsici at 10 ug/mL incubated at 25 degC for 5 days in absence of 5 ug/mL ATP; format: functional
Phytophthora capsici [17] = test: Inhibition of sporangia formation of Phytophthora capsici at 0.5 ug/mL treated 240 min after sporangia incubation followed by compound exposure for 60 min by light microscopy; format: functional
Phytophthora capsici [18] = test: Inhibition of mycelial radial growth of Phytophthora capsici incubated at 25 degC for 5 days; format: functional, organism-based; settings: 120 h
Phytophthora capsici [19] = test: Inhibition of mycelial radial growth of Phytophthora capsici at 2 ug/mL incubated at 25 degC for 5 days; format: functional; settings: 120 h
Phytophthora capsici [20] = test: Induction of morphological changes in Phytophthora capsici assessed as increase in abnormal mycelial configurations at 10 ug/mL by scanning electron microscopy; format: functional, organism-based
Phytophthora capsici [21] = test: Inhibition of mycelial radial growth of Phytophthora capsici at 5 ug/mL incubated at 25 degC for 5 days in presence of 5 ug/mL ATP; format: functional; settings: 120 h
Phytophthora capsici [22] = test: Inhibition of sporangia formation of Phytophthora capsici treated 240 min after sporangia incubation followed by compound exposure for 60 min by light microscopy; format: functional, organism-based
Phytophthora capsici [23] = test: Inhibition of sporangia formation of Phytophthora capsici at 2 ug/mL treated 240 min after sporangia incubation followed by compound exposure for 60 min by light microscopy; format: functional
Phytophthora capsici [24] = test: Inhibition of zoospore release of Phytophthora capsici at 50 ug/mL; format: functional
Phytophthora capsici [25] = test: Induction of morphological changes in Phytophthora capsici assessed as reduction in number of vesicles at 5 ug/mL by transmission electron microscopy; format: functional, organism-based
Phytophthora capsici [26] = test: Inhibition of zoospore release of Phytophthora capsici at 100 ug/mL; format: functional
Phytophthora capsici [27] = test: Induction of morphological changes in Phytophthora capsici assessed as induction of distortion of cell wall at 10 ug/mL by transmission electron microscopy; format: functional, organism-based
Phytophthora capsici [28] = test: Induction of morphological changes in Phytophthora capsici assessed as distortion of vacuoles and vesicles in dense bodies at 10 ug/mL by transmission electron microscopy; format: functional, organism-based
Phytophthora capsici [29] = test: Inhibition of mycelial radial growth of Phytophthora capsici at 1 ug/mL incubated at 25 degC for 5 days; format: functional; settings: 120 h
Phytophthora capsici [30] = test: Inhibition of cytospore germination of Phytophthora capsici at 2 ug/mL after 24 hr; format: functional
Phytophthora capsici [31] = test: Induction of morphological changes in Phytophthora capsici assessed as increase in mycelial colony density at 5 ug/mL by scanning electron microscopy; format: functional, organism-based
Phytophthora capsici [32] = test: Inhibition of cytospore germination of Phytophthora capsici at 0.1 ug/mL after 24 hr; format: functional
Phytophthora capsici [33] = test: Inhibition of cytospore germination of Phytophthora capsici at 1 ug/mL after 24 hr; format: functional
Phytophthora capsici [34] = test: Inhibition of sporangia formation of Phytophthora capsici at 0.1 ug/mL treated 240 min after sporangia incubation followed by compound exposure for 60 min by light microscopy; format: functional
Phytophthora capsici [35] = test: Inhibition of zoospore release of Phytophthora capsici at 12 ug/mL; format: functional
Phytophthora capsici [36] = test: Induction of morphological changes in Phytophthora capsici assessed as abnormal mycelial growth at 5 ug/mL by scanning electron microscopy; format: functional, organism-based
Phytophthora capsici [37] = test: Inhibition of cytospore germination of Phytophthora capsici at 0.5 ug/mL after 24 hr; format: functional
Phytophthora capsici [38] = test: Induction of morphological changes in Phytophthora capsici assessed as increase in mycelial colony density at 10 ug/mL by scanning electron microscopy; format: functional, organism-based
Phytophthora capsici [39] = test: Induction of morphological changes in Phytophthora capsici assessed as increase in mycelial ramifications at 10 ug/mL by scanning electron microscopy; format: functional, organism-based
Phytophthora capsici [40] = test: Inhibition of cytospore germination of Phytophthora capsici at 0.2 ug/mL after 24 hr; format: functional
Phytophthora capsici [41] = test: Induction of morphological changes in Phytophthora capsici assessed as increase in extensive cell wall proliferation at 5 ug/mL by transmission electron microscopy; format: functional, organism-based
Phytophthora capsici [42] = test: Induction of morphological changes in Phytophthora capsici assessed as induction of multilayered cell wall development at 10 ug/mL by transmission electron microscopy; format: functional, organism-based
Phytophthora capsici [43] = test: Induction of morphological changes in Phytophthora capsici assessed as increase in dense bodies at 10 ug/mL by transmission electron microscopy; format: functional, organism-based
Phytophthora capsici [44] = test: Inhibition of zoospore release of Phytophthora capsici at 6 ug/mL; format: functional
Phytophthora capsici [45] = test: Inhibition of cytospore germination of Phytophthora capsici after 24 hr; format: functional, organism-based
Phytophthora capsici [46] = test: Induction of morphological changes in Phytophthora capsici assessed as abnormal mycelial growth at 10 ug/mL by scanning electron microscopy; format: functional, organism-based
Phytophthora capsici [47] = test: Inhibition of mycelial radial growth of Phytophthora capsici at 5 ug/mL incubated at 25 degC for 5 days; format: functional; settings: 120 h
Phytophthora capsici [48] = test: Inhibition of zoospore release of Phytophthora capsici; format: functional, organism-based
Phytophthora capsici [49] = test: Inhibition of mycelial radial growth of Phytophthora capsici at 10 ug/mL incubated at 25 degC for 5 days in presence of 1 ug/mL ATP; format: functional
Phytophthora capsici [50] = test: Inhibition of sporangia formation of Phytophthora capsici at 0.2 ug/mL treated 240 min after sporangia incubation followed by compound exposure for 60 min by light microscopy; format: functional
Phytophthora capsici [51] = test: Inhibition of zoospore release of Phytophthora capsici at 25 ug/mL; format: functional
Phytophthora capsici [52] = test: Inhibition of mycelial radial growth of Phytophthora capsici at 0.6 ug/mL incubated at 25 degC for 5 days; format: functional; settings: 120 h
Phytophthora capsici [53] = test: Inhibition of mycelial radial growth of Phytophthora capsici at 5 ug/mL incubated at 25 degC for 5 days in presence of 1 ug/mL ATP; format: functional
Phytophthora capsici [54] = test: Inhibition of sporangia formation of Phytophthora capsici at 1 ug/mL treated 240 min after sporangia incubation followed by compound exposure for 60 min by light microscopy; format: functional

## CO/C=C(/C(=O)OC)c1ccccc1Oc1cc(Oc2ccccc2C#N)ncn1 [AZOXYSTROBIN]
Phytophthora capsici [1]
  inhibition at 10 µg/mL: 74.2%
Phytophthora capsici [2]
  inhibition at 10 µg/mL: 86.2%
Phytophthora capsici [3]
  inhibition at 10 µg/mL: 86.8%
Phytophthora capsici [4]
  Activity: 51.36%
Phytophthora capsici [5]
  Activity: 53.27%
Phytophthora capsici [6]
  Activity: 9.02%
Phytophthora capsici [7]
  inhibition at 10 µg/mL: 71.7%

## COc1ccc(C(=CC(=O)N2CCOCC2)c2ccc(Cl)cc2)cc1OC [DIMETHOMORPH]
Phytophthora capsici [8]
  inhibition at 100 µg/mL: 55%
Phytophthora capsici [9]
  inhibition at 100 µg/mL: 19.4%
Phytophthora capsici [10]
  Activity: 49.91%
Phytophthora capsici [11]
  Activity: 44.06%
Phytophthora capsici [12]
  inhibition at 100 µg/mL: 61.1%
Phytophthora capsici [13]
  inhibition at 100 µg/mL: 59.6%
Phytophthora capsici [14]
  Activity: 51.62%

## CC(C)(C)c1ccc(/C(=C/C(=O)N2CCOCC2)c2ccnc(Cl)c2)cc1 [PYRIMORPH]
Phytophthora capsici [15]
  inhibition (INH): 77%
Phytophthora capsici [16]
  inhibition (INH): 98%
Phytophthora capsici [17]
  inhibition at 0.5 µg/mL: 66%
Phytophthora capsici [18]
  EC50: 1.84 µg/mL (≈ 4.78 µM)
  EC90: 5.71 µg/mL (≈ 14.8 µM)
Phytophthora capsici [8]
  inhibition at 100 µg/mL: 44%
Phytophthora capsici [19]
  inhibition at 2 µg/mL: 57%
Phytophthora capsici [20]
  Activity: Active
Phytophthora capsici [21]
  inhibition at 5 µg/mL: 72%
Phytophthora capsici [9]
  inhibition at 100 µg/mL: 41%
Phytophthora capsici [22]
  EC50: 0.17 µg/mL (≈ 0.442 µM)
  EC90: 3.21 µg/mL (≈ 8.34 µM)
Phytophthora capsici [23]
  inhibition at 2 µg/mL: 85%
Phytophthora capsici [24]
  inhibition at 50 µg/mL: 94%
Phytophthora capsici [25]
  Activity: Active
Phytophthora capsici [26]
  inhibition at 100 µg/mL: 95%
Phytophthora capsici [27]
  Activity: Active
Phytophthora capsici [28]
  Activity: Active
Phytophthora capsici [29]
  inhibition at 1 µg/mL: 28%
Phytophthora capsici [30]
  inhibition at 2 µg/mL: 84%
Phytophthora capsici [31]
  Activity: Active
Phytophthora capsici [32]
  inhibition at 0.1 µg/mL: 54%
Phytophthora capsici [33]
  inhibition at 1 µg/mL: 71%
Phytophthora capsici [34]
  inhibition at 0.1 µg/mL: 52%
Phytophthora capsici [35]
  inhibition at 12 µg/mL: 65%
Phytophthora capsici [36]
  Activity: Active
Phytophthora capsici [37]
  inhibition at 0.5 µg/mL: 68%
Phytophthora capsici [38]
  Activity: Active
Phytophthora capsici [10]
  Activity: 18.31%
Phytophthora capsici [39]
  Activity: Active
Phytophthora capsici [40]
  inhibition at 0.2 µg/mL: 56%
Phytophthora capsici [41]
  Activity: Active
Phytophthora capsici [11]
  Activity: 5.22%
Phytophthora capsici [42]
  Activity: Active
Phytophthora capsici [12]
  inhibition at 100 µg/mL: 60.2%
Phytophthora capsici [43]
  Activity: Active
Phytophthora capsici [44]
  inhibition at 6 µg/mL: 58%
Phytophthora capsici [45]
  EC50: 0.09 µg/mL (≈ 0.234 µM)
  EC90: 8.16 µg/mL (≈ 21.2 µM)
Phytophthora capsici [46]
  Activity: Active
Phytophthora capsici [47]
  inhibition at 5 µg/mL: 81%
Phytophthora capsici [48]
  EC50: 4.92 µg/mL (≈ 12.8 µM)
  EC90: 45.7 µg/mL (≈ 119 µM)
Phytophthora capsici [49]
  inhibition (INH): 78.1%
Phytophthora capsici [50]
  inhibition at 0.2 µg/mL: 57%
Phytophthora capsici [13]
  inhibition at 100 µg/mL: 51.8%
Phytophthora capsici [14]
  Activity: 32.61%
Phytophthora capsici [51]
  inhibition at 25 µg/mL: 80%
Phytophthora capsici [52]
  inhibition at 0.6 µg/mL: 9%
Phytophthora capsici [53]
  inhibition (INH): 75%
Phytophthora capsici [54]
  inhibition at 1 µg/mL: 75%
